# Assay results: US10221239B2, “TRPM4 channel inhibitors for stroke treatment” (Singapore Health Services Pte Ltd, priority 2013, dated 2019)
# “Also recorded” adds a separate entry of the source.
# Experiments:
# [1] = test system: HUVECs; experiment: HUVEC cell number count after different doses of 9-phenanthrol; format: cell-based, human
# Protocol: (§1) HUVECs (Lonza, Wokingham, UK) were cultured at 37° C. with 5% CO2. The culture medium is endothelial growth medium-2 (EGM-2) consisting of endothelial basal medium (EBM), supplemented with 2% fetal bovine serum, hydrocortisone, hFGF, VEGF, R3-IGF-1, ascorbic acid, HEGF, GA-1000, and heparin (Lonza, Wokingham, UK). Cells at passage 6-10 were used for experiments. HUVECs were subjected to oxygen/glucose deprivation (OGD). To achieve supplement deprivation, EGM-2 was changed to EBM without fetal bovine serum or growth supplements. Hypoxia was induced by culturing the cells in a hypoxic chamber (Stem Cell Technologies, Vancouver, Canada) with 1% O2 and 5% CO2 at 37° C. for 24 hours.
# To test the functional impact of TRPM4 on HUVECs, the cells were incubated with the TRPM4-specific blocker 9-phenanthrol. […] A study was performed in which 9-phenantrol with the concentration ranged from 0.1 μM to 30 μM was added to HUVECs. […] Thus, 5 μM 9-phenanthrol was used to treat HUVECs.
# [2] = test system: HUVECs; experiment: HUVEC cell death after oxygen/glucose deprivation (cell count, MTT); format: cell-based, human; conditions: 5 μM
# Protocol: as §1
# [3] = test system: HUVECs; experiment: Tube formation of HUVECs on Matrigel after OGD; format: cell-based, human; conditions: 5 μM
# Protocol: as §1
# HUVECs were divided into the following groups: Normoxia; Normoxia+5 μM 9-phenanthrol (Sigma); Hypoxia; and Hypoxia+5 μM 9-phenanthrol. A 24-well culture plate was precoated with 250 μl of growth factor-reduced Matrigel (Sigma, USA) at 37° C. for 30 minutes. 24 hours after OGD, 4×10^4 cells (in 300 μl of EGM-2) from each group were seeded onto the Matrigel-coated plates. The formation of capillary structures was examined under a light microscope after 4 hours. This study was replicated more than 4 times.
# [4] = target: T1, TRPM5 channel (Homo sapiens, UniProt Q9NZQ8); conditions: Grand T, et al. 2008; cited from earlier work
# T1 sequence (Q9NZQ8 1-1165): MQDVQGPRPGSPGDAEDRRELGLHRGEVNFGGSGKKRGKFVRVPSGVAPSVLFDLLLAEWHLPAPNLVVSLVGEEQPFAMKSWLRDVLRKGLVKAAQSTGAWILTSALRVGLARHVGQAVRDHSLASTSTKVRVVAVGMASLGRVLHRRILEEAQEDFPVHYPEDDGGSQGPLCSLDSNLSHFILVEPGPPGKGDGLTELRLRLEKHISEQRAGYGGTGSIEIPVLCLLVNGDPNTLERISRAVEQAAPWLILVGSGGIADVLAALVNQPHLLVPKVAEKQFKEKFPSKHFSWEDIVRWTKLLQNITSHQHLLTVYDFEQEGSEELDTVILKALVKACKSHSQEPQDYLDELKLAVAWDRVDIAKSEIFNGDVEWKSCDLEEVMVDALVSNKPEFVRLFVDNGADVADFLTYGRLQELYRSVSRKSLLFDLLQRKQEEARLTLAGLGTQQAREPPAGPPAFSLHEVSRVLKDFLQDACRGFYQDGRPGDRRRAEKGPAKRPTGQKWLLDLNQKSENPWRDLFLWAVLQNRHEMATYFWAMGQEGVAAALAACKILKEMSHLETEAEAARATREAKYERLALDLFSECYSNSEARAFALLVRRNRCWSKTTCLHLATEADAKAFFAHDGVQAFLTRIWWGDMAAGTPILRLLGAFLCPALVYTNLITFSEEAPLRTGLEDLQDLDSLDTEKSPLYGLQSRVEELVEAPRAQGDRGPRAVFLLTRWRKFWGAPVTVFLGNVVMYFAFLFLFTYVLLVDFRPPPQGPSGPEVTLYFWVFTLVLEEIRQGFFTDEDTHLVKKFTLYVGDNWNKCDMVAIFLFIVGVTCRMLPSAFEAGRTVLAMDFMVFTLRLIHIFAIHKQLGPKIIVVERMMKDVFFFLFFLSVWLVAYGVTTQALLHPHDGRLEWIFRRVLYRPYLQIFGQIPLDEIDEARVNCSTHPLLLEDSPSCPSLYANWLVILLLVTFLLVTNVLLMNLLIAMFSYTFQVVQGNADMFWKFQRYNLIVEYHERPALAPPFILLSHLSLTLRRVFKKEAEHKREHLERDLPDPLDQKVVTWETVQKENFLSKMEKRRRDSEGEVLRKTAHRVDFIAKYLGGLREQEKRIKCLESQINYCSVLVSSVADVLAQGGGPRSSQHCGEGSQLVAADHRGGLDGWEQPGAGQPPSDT
# [5] = target: TRPM4 homomers (Homo sapiens, UniProt Q8TD43); conditions: Sala-Rabanal M, et al. 2012; cited from earlier work
# TRPM4 homomers, sequence (Q8TD43 whole entry): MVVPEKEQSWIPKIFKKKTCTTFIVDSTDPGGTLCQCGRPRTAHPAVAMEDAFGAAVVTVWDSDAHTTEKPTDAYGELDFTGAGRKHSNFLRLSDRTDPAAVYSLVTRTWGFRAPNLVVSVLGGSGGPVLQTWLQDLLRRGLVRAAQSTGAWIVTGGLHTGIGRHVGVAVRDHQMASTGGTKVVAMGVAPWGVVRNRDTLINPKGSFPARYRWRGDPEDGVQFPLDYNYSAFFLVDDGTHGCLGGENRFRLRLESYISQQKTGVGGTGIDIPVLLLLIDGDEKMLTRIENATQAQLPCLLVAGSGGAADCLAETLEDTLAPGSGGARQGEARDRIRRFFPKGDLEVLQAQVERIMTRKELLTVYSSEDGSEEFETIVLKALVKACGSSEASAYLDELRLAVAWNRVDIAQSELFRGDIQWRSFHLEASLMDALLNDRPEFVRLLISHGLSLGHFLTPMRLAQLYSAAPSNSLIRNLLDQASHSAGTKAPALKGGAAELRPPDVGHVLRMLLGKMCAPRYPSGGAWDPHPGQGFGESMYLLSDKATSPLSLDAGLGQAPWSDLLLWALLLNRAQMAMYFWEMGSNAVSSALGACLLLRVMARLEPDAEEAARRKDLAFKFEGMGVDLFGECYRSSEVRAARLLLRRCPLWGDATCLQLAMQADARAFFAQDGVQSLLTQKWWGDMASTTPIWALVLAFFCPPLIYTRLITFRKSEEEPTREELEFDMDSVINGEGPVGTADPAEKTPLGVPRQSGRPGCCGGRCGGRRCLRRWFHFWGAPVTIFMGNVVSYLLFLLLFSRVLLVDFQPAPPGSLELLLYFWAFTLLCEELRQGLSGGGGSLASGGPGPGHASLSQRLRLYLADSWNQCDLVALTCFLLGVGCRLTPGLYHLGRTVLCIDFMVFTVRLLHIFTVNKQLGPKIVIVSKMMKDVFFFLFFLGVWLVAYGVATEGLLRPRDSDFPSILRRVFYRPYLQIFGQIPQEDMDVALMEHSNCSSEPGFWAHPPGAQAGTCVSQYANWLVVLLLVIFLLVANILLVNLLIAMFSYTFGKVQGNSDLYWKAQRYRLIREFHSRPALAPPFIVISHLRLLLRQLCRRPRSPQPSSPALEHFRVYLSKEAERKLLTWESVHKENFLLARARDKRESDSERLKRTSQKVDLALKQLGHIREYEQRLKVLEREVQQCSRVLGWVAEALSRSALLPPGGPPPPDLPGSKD
structure (smiles),measurement,setting,value
Oc1cc2ccccc2c2ccccc12 [9-phenanthrol],cell death,[1]; 10 μM 9-phenanthrol in culture medium,Cell death became prominent
same,cell survival,[1]; 30 μM 9-phenanthrol,Very few cells survived
same,cell death,[1]; 9-phenanthrol between 0.1 μM and 5 μM,No difference
same,cell death after OGD,[2]; 24 hours OGD,did not reduce cell death
same,MTT assay cell viability,[2]; vs control cells,no difference
same,HUVEC cell number count,"[2]; vs control cells, normoxia and hypoxia 24 hours",no difference
same,tube formation (tube branches) on Matrigel,[3],large enhancement; also recorded: significantly increased
same,effect on TRPM5 channel,[4],does not affect
COc1ccc(Cl)cc1C(=O)NCCc1ccc(S(=O)(=O)NC(=O)NC2CCCCC2)cc1 [glibenclamide],sensitivity of TRPM4 homomers,[5],not sensitive
